Assay results as given in ChEMBL document CHEMBL1154627, “Structure-activity relationship studies of targeting ligands against breast cancer cells” (J Med Chem, 2009).
Calls of active or inactive are those of the source. The rule behind the calls is not given here. Where a SMILES comes first, the peptide text is derived from it. Bridges are numbered along the chain shown (N, C = ends). [ ]: non-standard residue; d: D form. Tyr(3-NO2) = N[C@@H](Cc1ccc(O)c([N+](=O)[O-])c1)C(=O)O; Hyp = O=C(O)[C@@H]1C[C@@H](O)CN1

Columns and labels:
[1] = Binding affinity to alpha3beta1 integrin receptor in human MDA-MB-231 cells assessed as inhibition of cell binding to immobilized LXY1 peptide by cell adherence assay; type: cell-based
[2] = biological target: T1, Integrin alpha-3 (Homo sapiens) (UniProt P26006); test: Binding affinity to alpha3 integrin receptor in human MDA-MB-231 cells by fluorescent microscopy; type: cell-based
T1 sequence (whole entry): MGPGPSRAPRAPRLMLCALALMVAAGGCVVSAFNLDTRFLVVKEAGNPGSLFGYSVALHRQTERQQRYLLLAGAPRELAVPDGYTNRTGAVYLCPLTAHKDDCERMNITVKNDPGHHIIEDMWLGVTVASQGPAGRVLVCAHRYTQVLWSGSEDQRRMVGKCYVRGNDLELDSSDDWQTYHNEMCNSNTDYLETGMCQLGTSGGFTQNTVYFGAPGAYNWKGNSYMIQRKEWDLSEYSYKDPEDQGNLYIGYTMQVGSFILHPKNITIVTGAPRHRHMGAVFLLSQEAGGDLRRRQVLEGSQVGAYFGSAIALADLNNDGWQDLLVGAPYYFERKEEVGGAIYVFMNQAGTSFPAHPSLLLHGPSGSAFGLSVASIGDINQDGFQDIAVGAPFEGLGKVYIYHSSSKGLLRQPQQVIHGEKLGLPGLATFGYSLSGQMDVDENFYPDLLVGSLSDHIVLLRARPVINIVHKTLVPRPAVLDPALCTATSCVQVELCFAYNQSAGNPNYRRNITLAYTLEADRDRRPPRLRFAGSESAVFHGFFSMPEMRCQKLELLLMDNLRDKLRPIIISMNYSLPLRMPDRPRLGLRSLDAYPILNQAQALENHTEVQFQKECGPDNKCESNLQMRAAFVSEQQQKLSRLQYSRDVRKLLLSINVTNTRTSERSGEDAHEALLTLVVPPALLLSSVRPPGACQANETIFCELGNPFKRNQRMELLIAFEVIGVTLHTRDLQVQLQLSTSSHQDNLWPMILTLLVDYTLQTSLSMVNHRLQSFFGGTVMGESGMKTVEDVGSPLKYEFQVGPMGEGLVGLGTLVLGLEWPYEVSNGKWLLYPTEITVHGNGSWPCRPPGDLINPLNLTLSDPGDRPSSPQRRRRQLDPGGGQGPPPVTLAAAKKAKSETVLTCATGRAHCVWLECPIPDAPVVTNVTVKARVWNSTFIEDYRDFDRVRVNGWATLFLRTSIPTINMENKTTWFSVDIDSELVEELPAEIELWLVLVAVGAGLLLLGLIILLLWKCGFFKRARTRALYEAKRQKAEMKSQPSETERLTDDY

Mus musculus [3] = test: In vivo binding affinity to alpha3 integrin receptor in human MDA-MB-231 cells xenografted in iv dosed athymic nude mouse nu/nu by fluorescent imaging; type: functional, organism-based
Mus musculus [4] = test: Ex vivo binding affinity to alpha3 integrin receptor in human MDA-MB-231 cells xenografted in iv dosed athymic nude mouse nu/nu by fluorescent imaging; type: functional, organism-based

IC50 [1] [µM] | Structure (SMILES) | also measured
2.1 | NC(=O)C[C@@H]1NC(=O)[C@@H]2C[C@@H](O)CN2C(=O)CNC(=O)[C@H](c2cc(F)cc(F)c2)NC(=O)CNC(=O)[C@@H](CC(=O)O)NC(=O)[C@H](N)CSSC[C@H](C(N)=O)NC1=O | Activity [2]: Active; Activity (Mus musculus [3]): Active; Activity (Mus musculus [4]): Active
> 25 | NC(=O)C[C@@H]1NC(=O)[C@@H]2C[C@@H](O)CN2C(=O)CNC(=O)[C@H](c2ccccc2F)NC(=O)CNC(=O)[C@@H](CC(=O)O)NC(=O)[C@H](N)CSSC[C@H](C(N)=O)NC1=O | –
> 25 | CCCCCCN(CCCCCC)[C@@H]1CSSC[C@H](C(N)=O)NC(=O)[C@H](CC(N)=O)NC(=O)[C@@H]2C[C@@H](O)CN2C(=O)CNC(=O)[C@H](Cc2ccc(O)c([N+](=O)[O-])c2)NC(=O)CNC(=O)[C@@H](CC(=O)O)NC1=O | –
6.3 | NC(=O)C[C@@H]1NC(=O)[C@@H]2C[C@@H](O)CN2C(=O)CNC(=O)[C@H](c2ccc(F)c(F)c2)NC(=O)CNC(=O)[C@@H](CC(=O)O)NC(=O)[C@H](N)CSSC[C@H](C(N)=O)NC1=O | –
> 25 | NC(=O)C[C@@H]1NC(=O)[C@@H]2C[C@@H](O)CN2C(=O)CNC(=O)[C@H](Cc2ccc(O)c([N+](=O)[O-])c2)NC(=O)CNC(=O)[C@@H](CC(=O)O)NC(=O)[C@H](NC(=O)Nc2ccc(Cl)cc2)CSSC[C@H](C(N)=O)NC1=O | –
> 25 | CN(C)c1ccc(CN[C@@H]2CSSC[C@H](C(N)=O)NC(=O)[C@H](CC(N)=O)NC(=O)[C@@H]3C[C@@H](O)CN3C(=O)CNC(=O)[C@H](Cc3ccc(O)c([N+](=O)[O-])c3)NC(=O)CNC(=O)[C@@H](CC(=O)O)NC2=O)cc1 | –
> 25 | NC(=O)C[C@@H]1NC(=O)[C@@H]2C[C@@H](O)CN2C(=O)CNC(=O)[C@@H]2C[C@@H](c3ccccc3)CN2C(=O)CNC(=O)[C@@H](CC(=O)O)NC(=O)[C@H](N)CSSC[C@H](C(N)=O)NC1=O | –
> 25 | NC(=O)C[C@@H]1NC(=O)[C@@H]2C[C@@H](O)CN2C(=O)CNC(=O)[C@H](Cc2ccc(O)c([N+](=O)[O-])c2)NC(=O)CNC(=O)[C@@H](CC(=O)O)NC(=O)[C@H](NCc2ccc(-c3ccccc3)cc2)CSSC[C@H](C(N)=O)NC1=O | –
7.4 | NC(=O)C[C@@H]1NC(=O)[C@@H]2C[C@@H](O)CN2C(=O)CNC(=O)[C@H](Cc2ccc(O)c([N+](=O)[O-])c2)NC(=O)CNC(=O)[C@@H](CC(=O)O)NC(=O)[C@H](N)CSSC[C@H](C(N)=O)NC1=O (H-[dC][dD]G[Tyr(3-NO2)]G[Hyp]N[dC]-NH2; disulfide 1-8) | –
24.1 | NC(=O)C[C@@H]1NC(=O)[C@@H]2C[C@@H](O)CN2C(=O)CNC(=O)[C@@H]2CCCCN2C(=O)CNC(=O)[C@@H](CC(=O)O)NC(=O)[C@H](N)CSSC[C@H](C(N)=O)NC1=O | –
> 25 | CC(C)NC(=O)N[C@@H]1CSSC[C@H](C(N)=O)NC(=O)[C@H](CC(N)=O)NC(=O)[C@@H]2C[C@@H](O)CN2C(=O)CNC(=O)[C@H](Cc2ccc(O)c([N+](=O)[O-])c2)NC(=O)CNC(=O)[C@@H](CC(=O)O)NC1=O | –
> 25 | NC(=O)C[C@@H]1NC(=O)[C@@H]2C[C@@H](O)CN2C(=O)CNC(=O)[C@H](Cc2ccc(O)c(N)c2)NC(=O)CNC(=O)[C@@H](CC(=O)O)NC(=O)[C@H](N)CSSC[C@H](C(N)=O)NC1=O | –
> 25 | NC(=O)C[C@@H]1NC(=O)[C@@H]2C[C@@H](O)CN2C(=O)CNC(=O)[C@H](Cc2ccc(O)c([N+](=O)[O-])c2)NC(=O)CNC(=O)[C@@H](CC(=O)O)NC(=O)[C@H](NCc2cccc([N+](=O)[O-])c2)CSSC[C@H](C(N)=O)NC1=O | –
> 25 | NC(=O)C[C@@H]1NC(=O)[C@@H]2C[C@@H](O)CN2C(=O)CNC(=O)[C@H](Cc2ccc(O)c([N+](=O)[O-])c2)NC(=O)CNC(=O)[C@@H](CC(=O)O)NC(=O)[C@H](NC(=O)Nc2ccccc2)CSSC[C@H](C(N)=O)NC1=O | –
> 25 | N#Cc1cccc([C@@H]2NC(=O)CNC(=O)[C@@H](CC(=O)O)NC(=O)[C@H](N)CSSC[C@H](C(N)=O)NC(=O)[C@H](CC(N)=O)NC(=O)[C@@H]3C[C@@H](O)CN3C(=O)CNC2=O)c1 | –
> 25 | NC(=O)C[C@@H]1NC(=O)[C@@H]2C[C@@H](O)CN2C(=O)CNC(=O)[C@H](Cc2ccc(O)c([N+](=O)[O-])c2)NC(=O)CNC(=O)[C@@H](CC(=O)O)NC(=O)[C@@H](N)CCCCNC1=O | –
